Molecular target: T1, MD-2 (Homo sapiens, UniProt Q9Y6Y9)
T1 construct: gene LY96; Recombinant human MD-2 (R&D Systems #1787-MD-050/CF), covalently immobilized
T1 sequence (Q9Y6Y9 19-160): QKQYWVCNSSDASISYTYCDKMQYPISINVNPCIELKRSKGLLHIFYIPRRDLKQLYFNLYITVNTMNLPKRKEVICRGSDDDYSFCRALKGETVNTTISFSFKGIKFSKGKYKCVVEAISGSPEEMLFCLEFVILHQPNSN
Assay: SPR competition assay: inhibition of Lipid A binding to immobilized hMD-2

`CC(=O)[C@H]1CC[C@H]2[C@@H]3CC[C@H]4C[C@H](O)CC[C@]4(C)[C@H]3CC[C@]12C` [3α,5α-THP, (3α,5α)-3-hydroxypregnan-20-one] was tested, and the Ki was 4.5 ± 1.7 nM.
